The values below come from paper PMC10052035, “Virtual Screening, Structural Analysis, and Formation Thermodynamics of Carbamazepine Cocrystals” (Pharmaceutics, 2023).

Data set [1] is described as follows: Solubility of cocrystals and their constituents in organic solvents (shake-flask, HPLC). As to conditions: for solubility at 48 h: organic solvent or mixture, thermodynamic from solid; for Cp∙10^2, solubility of pure component: 293.15 K, value is C∙10^2. How it is done: For the [CBZ + 3AcAmBA] (1:1) cocrystal, methanol was used. For [CBZ + 4AcAmBA] (1:1), all the experiments were performed in acetonitrile. An excess of the solid was placed in an Eppendorf tube, and 2 mL of solvent was added. The resulting suspension was shaken in a ThermoMixer C (Eppendorf, Hamburg, Germany) at 800 rpm for 48 h at the specified temperature. Subsequently, the saturated solution was separated using a 0.22 μm PTEF filter, diluted, and analyzed using HPLC. The solid phases after the experiment were collected and characterized by PXRD. Each experiment was repeated three times.
The HPLC was performed on an LC-20 AD Shimadzu Prominence model (Shimadzu, Kyoto, Japan) equipped with a PDA detector and a Luna C-18 column (150 mm × 4.6 mm i.d., 5 μm particle size, and 100 Å pore size). The column temperature was set to 40 °C. To achieve the proper separation of the cocrystal components, different ratios of the mobile phase, consisting of acetonitrile and a 0.1% aqueous solution of trifluoroacetic acid (35:65 v/v), were used. The flow rate was 1.0 mL·min^−1, and the injection volume was 20 μL. The UV detection of carbamazepine, 2-acetamidobenzoic acid, 3-acetamidobenzoic acid, and 4-acetamidobenzoic acid was carried out at the wavelengths of 285 nm, 249 nm, 220 nm, and 266 nm, respectively.

On the set-up of data set [2]: method as in doi:10.1016/j.molliq.2021.118320. The settings on record: pH 2.0, 310.2 K; value belongs to the coformer of the cocrystal named in the row; ref [103]; cited from earlier work.

`CC(=O)Nc1cccc(C(=O)O)c1` [Cocrystal 3AcAmBA, 3-acetamidobenzoic acid]: the solubility at 48 h in data set [1] (acetonitrile, 20 °C) was found to be 4.3 ± 1 mM; in data set [1] (methanol, 20 °C), 75 ± 0.5 mM; in data set [1] (methanol, 25 °C), 87 ± 0.5 mM; in data set [1] (methanol, 30 °C), 97 ± 0.5 mM; in data set [1] (methanol, 35 °C), 109 ± 0.8 mM; in data set [1] (methanol, 40 °C) it was 119.5 ± 0.6 mM. In addition, the “Cp∙10^2, solubility of pure component” value in data set [1] (methanol) is 7.50±0.05 mol/l. Besides, in data set [2], the “S0(CF), intrinsic solubility of coformer” value was 4.1 mM.

Take `CC(=O)Nc1ccc(C(=O)O)cc1` [Cocrystal 4AcAmBA, 4-acetamidobenzoic acid]: in data set [1] (48 h), the “solubility ratio Cp,CBZ/Cp,coformer” value amounted to 14.1. Further, the solubility at 48 h came out at 10.1 ± 0.1 mM in data set [1] (acetonitrile, 20 °C); 11.45 ± 0.05 mM in data set [1] (acetonitrile, 25 °C); 12.8 ± 0.07 mM in data set [1] (acetonitrile, 30 °C); 14.73 ± 0.07 mM in data set [1] (acetonitrile, 35 °C); 16.6 ± 0.3 mM in data set [1] (acetonitrile, 40 °C). In addition, the “Cp∙10^2, solubility of pure component” value in data set [1] (acetonitrile) is reported as 1.010±0.010 mol/l. In data set [2], the “S0(CF), intrinsic solubility of coformer” value is 4.6 mM.

One may read the solubility as the concentration that dissolves in the medium under given conditions.
